For 16 compounds, logP results are on record in the SangsterLogP compilation.

The nature of series [1]: method code SF-HPLC, from DOI: 10.1021/je9900629.
The nature of series [2]: method code SF-AS, from DOI: 10.1021/je9900629.

As usually defined, the logP is the decadic logarithm of the partition coefficient of the neutral form, usually between octanol and water.

Compound `OC1C2CC3C1C3C2O` (stereo unspecified) returned a lipophilicity (logP) in series [1] of -0.42.

`C1CC2CCC1C2` returned a logP in series [1] of 3.78.

In turn, `OC(C1CC1)C1CC1` came in with a logP in series [1] of 1.07.

Compound `BrC1CC2CCC1C2` (stereo unspecified) displayed a logP of 3.54.

In series [1], `C1C2C3C2C2C1C32` (stereo unspecified) returned a logP of 2.9.

As to `O=C1C2CC3C(C2)C13`, in series [1], the logP was 0.81.

The compound `C1=CC2C=CC1C2` registered a logP in series [2] of 2.67.

In series [1], `ClC1CC2CCC1C2` (stereo unspecified) came in with a logP of 3.35.

Turning to `OC1CC2CCC1C2O` (stereo unspecified), the logP in series [1] was 0.4.

Compound `OC1CC2C=CC1C2` (stereo unspecified) showed a logP in series [2] of 1.24.

`OC1C2CCC(C2)C1O` (stereo unspecified) had a logP in series [1] of 0.4.

Compound `OC1CC2CCC1C2` (stereo unspecified) returned a logP in series [1] of 1.45.

The compound `C1=CC2CCC1C2` gave a logP in series [2] of 3.24.

For `C1CC2CC1C1OC21` (stereo unspecified), the logP in series [1] came to 1.58.

In turn, `BrC12CC3CC1C2C3` gave a logP of 3.11.

Turning to `OCC1CC2CCC1C2` (stereo unspecified), the logP in series [1] stood at 1.99.
